# Experimental data from PMC10772347 (Cell Reports Medicine, 2023).
# What was measured:
# NEK7 [1] = biological target: NEK7 (Homo sapiens, UniProt Q8TDX7); test: DARTS; type: cell-based
# NEK7 [2] = biological target: NEK7 (Mus musculus, UniProt Q9ES74); test: CETSA in BMDMs and DARTS in BMDM lysate; type: cell-based
# NEK7 (Mus musculus, UniProt Q9ES74), sequence (Q9ES74 whole entry): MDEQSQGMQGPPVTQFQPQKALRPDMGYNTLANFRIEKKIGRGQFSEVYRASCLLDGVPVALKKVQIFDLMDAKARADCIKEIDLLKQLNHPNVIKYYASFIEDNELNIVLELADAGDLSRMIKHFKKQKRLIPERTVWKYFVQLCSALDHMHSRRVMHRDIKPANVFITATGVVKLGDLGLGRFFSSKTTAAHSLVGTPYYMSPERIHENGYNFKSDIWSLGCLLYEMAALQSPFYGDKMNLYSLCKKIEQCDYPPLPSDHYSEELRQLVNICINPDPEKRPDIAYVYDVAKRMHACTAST
# NEK7 (Homo sapiens, UniProt Q8TDX7), sequence (Q8TDX7 whole entry, looked up): as the sequence (Q9ES74 whole entry) above, with T14P, S52A, D150E, I273M, I285V, A286T, T302S counted along it
smiles,measurement,setting,value
"CN1CCN(c2ccc(C(=O)Nc3n[nH]c4ccc(Cc5cc(F)cc(F)c5)cc34)c(NC3CCOCC3)c2)CC1 [ENB, entrectinib]",DARTS (pronase) in lysate of HEK293T cells overexpressing WT or mutant NEK7 (200),NEK7 [1],"R121A, but not I40A mutation, abolished NEK7 binding to ENB (Figure 4D), suggesting that ENB binds to R121 of NEK7"
same,CETSA in BMDMs and DARTS in BMDM lysate (200 uM ENB),NEK7 [2],ENB significantly enhanced the thermal stability of NEK7 even at higher temperatures compared with the DMSO-treated group
